Like-named read-outs stand apart in the source and are kept apart here.

Assay [1] deals with T1, HIV-1 RT-associated RDDP (Human immunodeficiency virus type 1 group M subtype B, UniProt P04585).
T1 construct: dynamics at the p66/p51 HIV-1 RT-RNase H dimer interface; made in house
The assay is described as follows: HIV-1 RNA-dependent DNA polymerase activity determination. The settings on record: wt RT, poly(A)-oligo(dT). The format is biochemical. How it is done: HIV-1 RT-associated RDDP activity was measured as described[17]^,[38]. Briefly, in 25 μL volume containing 60 mM Tris-HCl pH 8.1, 8 mM MgCl2, 60 mM KCl, 13 mM DTT, poly(A)-oligo(dT), 100 μM dTTP, and 6 ng wt RT. After enzyme addition, the reaction mixture was incubated for 30 min at 37 °C and stopped by addition of EDTA. […] All assays were performed in triplicate.

The target of assay [2] is T2, HIV-1 IN in the presence of LEDGF/p75 (Human immunodeficiency virus type 1 group M subtype B, UniProt P04585).
T2 construct: made in house
The assay can be described thus: HTRF IN LEDGF/p75-dependent assay. The class given is biochemical. How it is done: The IN LEDGF/p75-dependent assay measures inhibition of IN activity in the presence of LEDGF/p75 protein[35–37]. Briefly, 50 nM IN was pre-incubated with increasing concentration of compounds for 1 h at room temperature in reaction buffer containing 20 mM HEPES pH 7.5, 1 mM DTT, 1% Glycerol, 20 mM MgCl2, 0.05% Brij-35 and 0.1 mg/ml BSA. To this mixture, 9 nM DNA donor substrate (5′-[…]-Biotin-3′ annealed with 5′-[…]-Biotin3’) and 50 nM DNA acceptor substrate (5′-Cy5-[…]-3′ annealed with 5′-Cy5- […]-3′) and 50 nM LEDGF/p75 were added and incubated at 37 °C for 90 min.

Assay [3] deals with T3, wt HIV-1 RT-associated RNase H (Human immunodeficiency virus type 1 group M subtype B, UniProt P04585).
T3 construct: dynamics at the p66/p51 HIV-1 RT-RNase H dimer interface; made in house
The settings on record: wild type RT, cited from earlier work.

The target in assay [4] is p66/p51C280A mutant HIV-1 RNase H (Human immunodeficiency virus type 1 group M subtype B, UniProt P04585, C867A). Details: made in house; method as in PMID 24261890. The settings on record: p66/p51 C280A mutant RT; cited from earlier work.
In assay [5] the target is T3, wt HIV-1 RT-associated RNase H. The assay can be described thus: RNase H inhibitor analysis, wild type RT (fluorescent RNA/DNA hybrid). The format is biochemical. As to conditions: compared with decorated quinazolinone 2. How it is done: All assays were performed in triplicate.

Take `Cc1ccc2nc(-c3ccc(O)c(O)c3)[nH]c(=O)c2c1` [Compound 2, 2–(3,4-dihydroxyphenyl)-6-methylquinazolin-4(3H)-one]: the IC50 in assay [1] was more than 100 µM; in assay [2] it was 4.3 ± 1.5 µM; in assay [3] (read-out: IC50 WT RNase H) it was 0.41 ± 0.01 µM; in assay [4] it was 0.37 ± 0.01 µM.
For the molecule `O=c1[nH]c(-c2ccc(O)c(O)c2)nc2ccccc12` [Compound 17, 2–(3,4-dihydroxyphenyl)quinazolin-4(3H)-one], the “fold less potent HIV-1 RNase H inhibitor” value in assay [5] is given as 8 fold. The half-inhibitory concentration (IC50) in assay [1] is 70 ± 1 µM; in assay [2], 1.44 ± 0.4 µM; in assay [3] (read-out: IC50 (µM) WT RNase H) it was 3.46 ± 0.47 µM.

The values are drawn from publication PMC7646544, “Scaffold hopping and optimisation of 3’,4’-dihydroxyphenyl- containing thienopyrimidinones: synthesis of quinazolinone derivatives as novel allosteric inhibitors of HIV-1 reverse transcriptase-associated ribonuclease H” (Journal of Enzyme Inhibition and Medicinal Chemistry, 2020).
